In patent US20100227917A1, “EYE DROP CONTAINING DIBENZ[b,e]OXEPIN DERIVATIVE” (priority 2007, published 2010):

How the values were obtained:
Type in all cases: physicochemical
[1] = External observation of olopatadine hydrochloride mixtures (Test Examples 1 and 2); conditions: for External appearance after 1 hour stirring: about 23° C.; for External appearance after 43 hours: left at about 23° C.
Procedure: (§1) Each of the resulting mixtures was stirred with a magnetic stirrer at room temperature (about 23° C.) for 1 hour, and external observation and pH measurement were carried out. Then, an aqueous solution of sodium hydroxide was added to each mixture to prepare mixtures of pH 4 and 7, and external observation and pH measurement were carried out. Then, the mixtures were left at room temperature (about 23° C.) for 43 hours, and external observation, pH measurement, solubility measurement, and osmotic pressure measurement were carried out.
(§2) Each of the resulting mixtures was stirred with a magnetic stirrer at room temperature (about 23° C.) for 1 hour, and external observation and pH measurement were carried out. Then, an aqueous solution of sodium hydroxide was added to each mixture to prepare a mixture of pH 4, and external observation and pH measurement were carried out. Then, the mixture was left at room temperature (about 23° C.) for 43 hours, and external observation, pH measurement, solubility measurement, and osmotic pressure measurement were carried out in the same manner as in Test Example 1.

pH measurement = test: pH measurement
Procedure: as §1, §2

[2] = Osmotic pressure measurement with osmometer; conditions: ratio to physiological saline (293 mOsm), after 43 hours
Procedure: An osmotic pressure was measured using an osmometer (Osmostat OM6040, Arkray, Inc.).
Further, a ratio to the osmotic pressure of physiological saline was calculated according to the following equation.
(osmotic pressure ratio)=(osmotic pressure of test liquid)/(osmotic pressure of physiological saline)(293mOsm)

[3] = 100 mg in 10 mL Aqueous solution of 0.9% NaCl
[4] = 100 mg in 10 mL Buffer at pH 4.0 containing 0.9% NaCl
[5] = 100 mg in 10 mL Buffer at pH 7.0 containing 0.9% NaCl
[6] = 100 mg in 10 mL glutamic acid-sodium glutamate buffer at pH 4.0, column prepared to pH 4.0
[7] = 100 mg in 10 mL glutamic acid-sodium glutamate buffer at pH 4.0, column prepared to pH 7.0
[8] = 100 mg in 10 mL glutamic acid-sodium glutamate buffer at pH 7.0, column prepared to pH 4.0
[9] = 100 mg in 10 mL glutamic acid-sodium glutamate buffer at pH 7.0, column prepared to pH 7.0
[10] = Aqueous solution of 0.9% NaCl, prepared to pH 4
[11] = Buffer at pH 4.0 containing 0.9% NaCl, prepared to pH 4
[12] = Buffer at pH 7.0 containing 0.9% NaCl, prepared to pH 4
[13] = glutamic acid-sodium glutamate buffer at pH 4.0, prepared to pH 4.0
[14] = glutamic acid-sodium glutamate buffer at pH 4.0, prepared to pH 7.0
[15] = glutamic acid-sodium glutamate buffer at pH 7.0, prepared to pH 4.0
[16] = glutamic acid-sodium glutamate buffer at pH 7.0, prepared to pH 7.0

## CN(C)CC/C=C1/c2ccccc2COc2ccc(CC(=O)O)cc21.Cl [olopatadine hydrochloride, (Z)-11-(3-dimethylaminopropylidene)-6,11-dihydrodibenz[b,e]oxepin-2-acetic acid hydrochloride]
[1]; [3]
  External appearance after 1 hour stirring: Turbid in white
[1]; [4]
  External appearance after 1 hour stirring: Turbid in white
[1]; [5]
  External appearance after 1 hour stirring: Almost clear
[1]; [6]
  External appearance after 1 hour stirring: Clear
[1]; [7]
  External appearance after 1 hour stirring: Clear
[1]; [8]
  External appearance after 1 hour stirring: Clear
[1]; [9]
  External appearance after 1 hour stirring: Clear
[1]; [10]
  External appearance after pH adjustment: Turbid in white
  External appearance after 43 hours: Turbid in white
[1]; [11]
  External appearance after pH adjustment: Turbid in white
  External appearance after 43 hours: Turbid in white
[1]; [12]
  External appearance after pH adjustment: Almost clear
  External appearance after 43 hours: Turbid in white
[1]; [13]
  External appearance after pH adjustment: Clear
  External appearance after 43 hours: Turbid in white
[1]; [14]
  External appearance after pH adjustment: Turbid in white
  External appearance after 43 hours: Turbid in white
[1]; [15]
  External appearance after pH adjustment: Clear
[1]; [16]
  External appearance after pH adjustment: Turbid in white
  External appearance after 43 hours: Turbid in white
pH measurement; [3]
  pH after 1 hour stirring: 3.0
pH measurement; [4]
  pH after 1 hour stirring: 3.6
pH measurement; [5]
  pH after 1 hour stirring: 4.1
pH measurement; [6]
  pH after 1 hour stirring: 3.3
pH measurement; [7]
  pH after 1 hour stirring: 3.3
pH measurement; [8]
  pH after 1 hour stirring: 4.0
pH measurement; [9]
  pH after 1 hour stirring: 4.0
pH measurement; [10]
  pH adjustment (actual measurement value): 3.8
  pH after 43 hours: 3.7
pH measurement; [11]
  pH adjustment (actual measurement value): 3.8
  pH after 43 hours: 3.8
pH measurement; [12]
  pH adjustment (actual measurement value): 4.1
  pH after 43 hours: 3.9
pH measurement; [13]
  pH adjustment (actual measurement value): 4.1
  pH after 43 hours: 3.9
pH measurement; [14]
  pH adjustment (actual measurement value): 6.9
  pH after 43 hours: 6.9
pH measurement; [15]
  pH adjustment (actual measurement value): 4.0
  pH after 43 hours: 3.7
pH measurement; [16]
  pH adjustment (actual measurement value): 6.9
  pH after 43 hours: 6.9
[2]; [10]
  Osmotic pressure ratio: 1.085
[2]; [11]
  Osmotic pressure ratio: 1.167
[2]; [12]
  Osmotic pressure ratio: 1.201
[2]; [13]
  Osmotic pressure ratio: 0.290
[2]; [14]
  Osmotic pressure ratio: 0.403
[2]; [15]
  Osmotic pressure ratio: 0.270
[2]; [16]
  Osmotic pressure ratio: 0.379
